Test results published in publication PMC12621175, “Scaffold Fusion and SAR Transfer with a Chemical Language Model Generates Novel Liver X Receptor Modulators” (Journal of Medicinal Chemistry, 2025).
“Also recorded” adds a separate entry of the source.

How the values were obtained:
HepG2 cells = test: resazurin-based proliferation assay, HepG2; assay type: cell-based; details: 10 μM
Protocol: (§1) HepG2 or HEK293T cells were seeded in 96-well plates (4 × 10^4 cells per well). […] After 4, 14, and 24 h, the medium was aspirated, and the cells were incubated with 100 μM resazurin solution in Opti-MEM (prepared from a 0.15 mg/mL resazurin stock in DPBS) for 60 min. The metabolic activity was assessed by conversion of resazurin to resorufin, which was quantified by measuring absorbance at 570 nm and a reference wavelength of 600 nm. The cell count was calculated from a calibration curve with 0–10^5 cells per well in steps of 2 × 10^4.

LXRβ = molecular target: T1, LXRβ (Homo sapiens, UniProt P55055); test: Gal4-LXRβ hybrid reporter gene assay; assay type: cell-based; details: classification agonist; read-out: LXRb pEC50/pIC50 (converted)
T1 construct: coding for the hinge region, and LBD of the canonical isoform of the respective nuclear receptor; expressed in transfected cells; host or cells: HEK293T
T1 sequence (P55055 222-460 limits assumed): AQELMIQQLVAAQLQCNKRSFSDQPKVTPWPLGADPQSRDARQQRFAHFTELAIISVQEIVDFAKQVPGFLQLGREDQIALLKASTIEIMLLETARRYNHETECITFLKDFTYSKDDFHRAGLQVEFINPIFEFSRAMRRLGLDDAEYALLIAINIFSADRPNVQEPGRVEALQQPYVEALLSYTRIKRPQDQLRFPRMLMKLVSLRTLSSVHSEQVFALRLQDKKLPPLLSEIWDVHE
Protocol: (§2) The LXR-responsive reporter ABCA1-pGL3 was used for the full-length reporter gene assay.
(§3) The day before transfection, HEK293T cells were seeded in 96-well plates (4 × 10^4 cells/well). Before transfection, the medium was changed to Opti-MEM without any supplements. Transient transfection was carried out using Lipofectamine LTX reagent (Invitrogen) according to the manufacturer’s protocol with (a) pFR-Luc (Stratagene), pRL-SV40 (Promega), and the corresponding Gal4-fusion nuclear receptor plasmid or (b) the LXR-responsive reporter ABCA1-pGL3 and pRL-SV40 (Promega). […] Each concentration was tested in duplicate, and each experiment was repeated in at least three biologically independent repeats. […] Luminescence was measured with a Spark 10 M luminometer (Tecan Deutschland GmbH). Normalization of transfection efficiency and cell growth was done by division of firefly luciferase data by renilla luciferase data multiplied by 1000, resulting in relative light units (RLU). Fold activation was obtained by dividing the mean RLU of the tested compound at a respective concentration by the mean RLU of the untreated 0.1% DMSO control. […] Separate control experiments to exclude nonspecific reporter gene activation or VP16-mediated effects were performed following the same procedure in the absence of a nuclear receptor expression plasmid (pFR-Luc, pRL-SV40, and pECE-SV40-Gal4-VP16 only).

LXRα = molecular target: T2, LXRα (Homo sapiens, UniProt Q13133); test: Gal4-LXRα hybrid reporter gene assay; assay type: cell-based
T2 construct: coding for the hinge region, and LBD of the canonical isoform of the respective nuclear receptor; expressed in transfected cells; host or cells: HEK293T
T2 sequence (Q13133 209-447 limits assumed): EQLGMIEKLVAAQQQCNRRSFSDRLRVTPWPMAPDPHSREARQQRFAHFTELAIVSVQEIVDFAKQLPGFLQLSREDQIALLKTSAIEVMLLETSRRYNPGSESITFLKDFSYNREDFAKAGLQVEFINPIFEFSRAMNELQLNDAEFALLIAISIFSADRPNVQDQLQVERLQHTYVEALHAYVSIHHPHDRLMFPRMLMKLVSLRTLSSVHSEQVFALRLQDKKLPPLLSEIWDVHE
Protocol: as §2, §3

HEK293T cells = test: resazurin-based proliferation assay, HEK293T; assay type: cell-based; details: 10 μM
Protocol: as §1

[1] = tested on: LXR/retinoid X receptor (RXR) heterodimer; test: full-length LXR assay (LXR-responsive ABCA1 reporter, endogenous LXR) in HEK293T and HepG2 cells; assay type: cell-based; details: 3 μM, vs 0.1% DMSO
Text: Intrigued by the initial data on LXR modulation, we further investigated the mode-of-action of designs 1-3. As the Gal4 hybrid reporter gene assay is artificial and overexpresses LXR, we next examined LXR modulation by 1-3 in a full-length LXR assay (Figure a) based on the endogenous expression of the LXR/retinoid X receptor (RXR) heterodimer (Figure S2). Upon activation, LXR binds to response elements within the ATP-binding cassette transporter A1 (ABCA1, an LXR target gene) promoter of the reporter. […] The designs were next checked for antiproliferative effects that may compromise further in vitro characterization. […] Therefore, and due to the weak efficacy of 2, we focused further biological characterization on 1 and 3.
For the hybrid reporter gene assays, the previously reported Gal4-fusion receptor plasmids pFA-CMV-hRORα-LBD, pFA-CMV-hRORβ-LBD, pFA-CMV-hRORγ-LBD, pFA-CMV-hLXRα-LBD, pFA-CMV-hLXRβ-LBD, pFA-CMV-hFXR-LBD, pFA-CMV-hPXR-LBD, and pFA-CMV-hRXRα-LBD, coding for the hinge region, and LBD of the canonical isoform of the respective nuclear receptor were used. pFR-Luc (Stratagene) was used as the reporter plasmid, and pRL-SV40 (Promega) was used in all assays for the normalization of transfection efficiency and cell growth. pECE-SV40-Gal4-VP16 was a gift from Lea Sistonen (Addgene plasmid #71728). The LXR-responsive reporter ABCA1-pGL3 was used for the full-length reporter gene assay.
The day before transfection, HEK293T cells were seeded in 96-well plates (4 × 10^4 cells/well). Before transfection, the medium was changed to Opti-MEM without any supplements. […] Luminescence was measured with a Spark 10 M luminometer (Tecan Deutschland GmbH). […] EC50/IC50 values and the standard errors thereof were calculated with the mean fold activation values by OriginPro, Version 2025 (OriginLab Corporation, Northampton, MA, USA), fitting a dose–response curve with a variable Hill slope (Levenberg–Marquardt algorithm). […]

SREBP1c = test: qPCR of LXR-regulated mRNA expression in HepG2: SREBP1c; assay type: cell-based, human; details: 1 μM, HepG2, 24 h
ABCA1 = test: qPCR of LXR-regulated mRNA expression in HepG2: ABCA1; assay type: cell-based, human; details: 1 μM, HepG2, 24 h
APOE = test: qPCR of LXR-regulated mRNA expression in HepG2: APOE; assay type: cell-based, human; details: 1 μM, HepG2, 24 h

EC50 (LXRβ) | classification (LXRα; applies to LXRa and LXRb) | LXR modulation in Gal4 hybrid reporter gene assays (mode of action) (LXRα; both LXR subtypes (LXRα and LXRβ)) | EC50 (LXRα; classification agonist, read-out: LXRa pEC50/pIC50 (converted)) | Structure (SMILES) | antiproliferative effect (HepG2 cells) | antiproliferative effect (HEK293T cells) | LXR modulation in LXR-responsive ABCA1 reporter gene assay [1] | SREBP1c mRNA expression (SREBP1c) | SREBP1c mRNA expression (SREBP1c; listed as T090) | ABCA1 mRNA expression (ABCA1) | ABCA1 mRNA expression (ABCA1; listed as T090) | APOE mRNA expression (APOE) | APOE mRNA expression (APOE; listed as T090)
> 3.16 µM | agonist | partial agonists | > 3.16 µM | CS(=O)(=O)c1cccc(N2CCN(c3ccc(Cl)c(C(F)(F)F)c3)CC2)c1 [Compound 2, 1-(4-Chloro-3-[trifluoromethyl]phenyl)-4-(3-[methylsulfonyl]phenyl)piperazine] | did not inhibit the proliferation | did not inhibit the proliferation; also recorded: slightly reduced growth rate | partial LXR agonists; also recorded: partial LXR agonism |  |  |  |  |  | 
 |  |  |  | O=S(=O)(c1ccccc1)N(CC(F)(F)F)c1ccc(C(O)(C(F)(F)F)C(F)(F)F)cc1 [Compound T0901317, reference compound] |  |  |  | induced mRNA expression | induced | induced mRNA expression | induced | induced mRNA expression | induced
